“Also recorded” adds a separate entry of the source. Read-outs that look alike come from different tables or passages of the source.
Key:
Format in all cases: binding
human SSTR1 = target: T1, human SSTR1 (Homo sapiens, UniProt P30872); test: Displacement of 125I-[Leu8,D-Trp22,Tyr25]-somatostatin-28 from cloned SSTR1 (receptor autoradiography on membrane pellets)
T1 construct: expressed in transfected cells; host or cells: CHO-K1 cells and CCL39 cells
Method: (§1) Generally, recombinant cells expressing the receptor are washed and homogenized to prepare a crude protein homogenate in a suitable buffer, as known in the art. In a typical assay, an amount of protein from the cell homogenate is placed into a small volume of an appropriate assay buffer at an appropriate pH. Candidate substances, such as potential SRIF agonists and antagonists, are added to the admixture in convenient concentrations, and the interaction between the candidate substance and the receptor polypeptide is monitored.
(§2) Receptor binding assays are performed on cloned SRIF receptors as generally set forth in Raynor et al. supra. Using such assays, one can generate KD values which are indicative of the concentration of a ligand necessary to occupy one-half (50%) of the binding sites on a selected amount of a receptor or the like, or alternatively, competitive assays can generate IC50 values which are indicative of the concentration of a competitive ligand necessary to displace a saturation concentration of a target ligand being measured from 50% of binding sites.
(§3) In vitro Bioassay: The various somatostatin analogs are tested in vitro for their ability to bind to isolated cloned receptors expressed on CHO-K1 cells and CCL39 cells. CHO-K1 cells are grown in Ham's F-12 medium, and CCL39 cells are grown in Dulbecco's modified Eagle's medium/Ham's F-12(1:1) mix, supplemented with 10% fetal bovine serum, 100 U/ml penicillin and 100 μg/ml streptomycin, in humidified air containing 5% CO2 at 37° C.
(§4) Cells are washed twice with and scraped into ice-cold 0.05 M Tris-HCl (pH 7.4), collected by centrifugation, and homogenized using a rotor/stator slash system in the same buffer. After centrifugation at 120 g for 5 min. at 4° C., the supernatant is collected and centrifuged again at 48,000 g for 30 min. at 4° C. The resulting pellet is resuspended in ice-cold Tris buffer, transferred into a microfuge tube, and centrifuged at 20,000 g for 15 min. at 4° C. After withdrawal of the supernatant, the membrane pellet is stored at −80° C.
(§5) Receptor autoradiography is performed on 20 μm thick cryostat sections of the membrane pellets, mounted on microscope slides, and then stored at −20° C. […] […] Unlabeled somatostatin-28 is run in parallel using the same increasing concentrations, as a control. IC50 values are calculated after quantification of the data using a computer-assisted image processing system as known in this art.

human SSTR2 = target: T2, human SSTR2 (Homo sapiens, UniProt P30874); test: Displacement of 125I-[Leu8,D-Trp22,Tyr25]-somatostatin-28 from cloned SSTR2 (receptor autoradiography on membrane pellets)
T2 construct: expressed in transfected cells; host or cells: CHO-K1 cells and CCL39 cells
Method: as §1, §2, §3, §4, §5

human SSTR3 = target: T3, human SSTR3 (Homo sapiens, UniProt P32745); test: Displacement of 125I-[Leu8,D-Trp22,Tyr25]-somatostatin-28 from cloned SSTR3 (receptor autoradiography on membrane pellets); details: for relative potency at SSTR3 by comparison to SRIF-28: binding affinity relative to SRIF-28 (=1); for binding strength and selectivity for SSTR3, in words: qualitative statement
T3 construct: expressed in transfected cells; host or cells: CHO-K1 cells and CCL39 cells
Method: as §1
as §2, with “sites. The peptide des-AA^1,2,4,5,12,13-[D-Agl^8(Me,2-naphthoyl)]SRIF inhibits the binding to SSTR3 of an iodinated SRIF-28 ligand that has strong affinity for all five receptors.” for “sites.”
as §3, §4
(§6) Receptor autoradiography is performed on 20 μm thick cryostat sections of the membrane pellets, mounted on microscope slides, and then stored at −20° C. For each of the tested compounds, complete displacement experiments are performed with the universal somatostatin ligand radioligand ^125I-[Leu^8,D-Trp^22,Tyr^25]-somatostatin-28 that binds with strong affinity to all five receptors. Increasing concentrations of the unlabeled peptide are used ranging from 0.1-1000 nM. Unlabeled somatostatin-28 is run in parallel using the same increasing concentrations, as a control. IC50 values are calculated after quantification of the data using a computer-assisted image processing system as known in this art.
(§7) The potencies of certain SRIF analogs to inhibit radioligand binding of ^125I-[Leu^8,D-Trp^22,[…]]SRIF-28 to the various cloned SRIF receptors are shown in the following table wherein the IC50 values are given in nanomolar concentration.

human SSTR4 = target: T4, human SSTR4 (Homo sapiens, UniProt P31391); test: Displacement of 125I-[Leu8,D-Trp22,Tyr25]-somatostatin-28 from cloned SSTR4 (receptor autoradiography on membrane pellets)
T4 construct: expressed in transfected cells; host or cells: CHO-K1 cells and CCL39 cells
Method: as §1, §2, §3, §4, §5

human SSTR5 = target: T5, human SSTR5 (Homo sapiens, UniProt P35346); test: Displacement of 125I-[Leu8,D-Trp22,Tyr25]-somatostatin-28 from cloned SSTR5 (receptor autoradiography on membrane pellets)
T5 construct: expressed in transfected cells; host or cells: CHO-K1 cells and CCL39 cells
Method: as §1
as §2, with “sites. The peptide des-AA^1,2,4,5,12,13-[D-Agl^8(Me,2-naphthoyl)]SRIF inhibits the binding to SSTR3 of an iodinated SRIF-28 ligand that has strong affinity for all five receptors.” for “sites.”
as §3, §4
as §6, with “Increasing concentrations of the unlabeled peptide are used ranging from 0.1-1000 nM.” left out
as §7

[1] = inhibition of 125I-[Leu8,D-Trp22,Tyr24]SRIF-28 binding, cloned receptor, read-out: IC50 (nM) mSSTR1
[2] = inhibition of 125I-[Leu8,D-Trp22,Tyr24]SRIF-28 binding, cloned receptor, read-out: IC50 (nM) mSSTR2
[3] = inhibition of 125I-[Leu8,D-Trp22,Tyr24]SRIF-28 binding, cloned receptor, read-out: IC50 (nM) mSSTR3
[4] = iodinated SRIF-28 ligand, cloned human receptor, read-out: IC50 at cloned human SSTR3
[5] = inhibition of 125I-[Leu8,D-Trp22,Tyr24]SRIF-28 binding, cloned receptor, read-out: IC50 (nM) mSSTR4
[6] = inhibition of 125I-[Leu8,D-Trp22,Tyr24]SRIF-28 binding, cloned receptor, read-out: IC50 (nM) mSSTR5

T4 sequence (P31391 whole entry): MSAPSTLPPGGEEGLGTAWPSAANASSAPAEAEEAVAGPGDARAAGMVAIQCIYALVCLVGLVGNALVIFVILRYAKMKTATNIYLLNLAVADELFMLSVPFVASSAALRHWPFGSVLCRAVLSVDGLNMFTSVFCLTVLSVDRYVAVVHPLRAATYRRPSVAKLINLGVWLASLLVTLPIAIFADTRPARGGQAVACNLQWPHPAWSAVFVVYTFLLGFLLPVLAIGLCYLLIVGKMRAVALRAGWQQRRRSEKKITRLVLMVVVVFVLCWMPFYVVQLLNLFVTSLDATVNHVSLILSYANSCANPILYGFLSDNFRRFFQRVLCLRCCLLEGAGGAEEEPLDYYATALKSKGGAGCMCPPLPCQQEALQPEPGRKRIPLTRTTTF
T2 sequence (P30874 whole entry): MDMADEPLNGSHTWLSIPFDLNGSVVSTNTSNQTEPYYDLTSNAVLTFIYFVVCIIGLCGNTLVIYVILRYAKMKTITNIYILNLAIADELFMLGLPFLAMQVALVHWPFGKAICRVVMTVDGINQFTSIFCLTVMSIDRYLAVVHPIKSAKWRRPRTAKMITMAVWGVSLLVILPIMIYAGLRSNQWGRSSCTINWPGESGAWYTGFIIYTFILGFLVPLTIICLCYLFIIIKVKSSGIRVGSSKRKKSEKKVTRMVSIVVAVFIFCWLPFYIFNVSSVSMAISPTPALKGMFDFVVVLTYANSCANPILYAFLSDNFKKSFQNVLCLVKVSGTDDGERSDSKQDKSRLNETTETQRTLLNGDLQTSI
T5 sequence (P35346 whole entry): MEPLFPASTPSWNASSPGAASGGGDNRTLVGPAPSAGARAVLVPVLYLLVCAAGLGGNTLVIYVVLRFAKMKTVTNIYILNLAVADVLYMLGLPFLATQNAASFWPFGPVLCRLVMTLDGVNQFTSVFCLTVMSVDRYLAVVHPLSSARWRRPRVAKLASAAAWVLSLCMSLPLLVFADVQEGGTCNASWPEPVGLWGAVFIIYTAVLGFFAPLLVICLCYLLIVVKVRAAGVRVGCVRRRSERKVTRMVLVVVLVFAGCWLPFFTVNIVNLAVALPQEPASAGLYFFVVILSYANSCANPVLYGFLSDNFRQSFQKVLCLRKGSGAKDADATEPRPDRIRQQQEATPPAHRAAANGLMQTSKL
T1 sequence (P30872 whole entry): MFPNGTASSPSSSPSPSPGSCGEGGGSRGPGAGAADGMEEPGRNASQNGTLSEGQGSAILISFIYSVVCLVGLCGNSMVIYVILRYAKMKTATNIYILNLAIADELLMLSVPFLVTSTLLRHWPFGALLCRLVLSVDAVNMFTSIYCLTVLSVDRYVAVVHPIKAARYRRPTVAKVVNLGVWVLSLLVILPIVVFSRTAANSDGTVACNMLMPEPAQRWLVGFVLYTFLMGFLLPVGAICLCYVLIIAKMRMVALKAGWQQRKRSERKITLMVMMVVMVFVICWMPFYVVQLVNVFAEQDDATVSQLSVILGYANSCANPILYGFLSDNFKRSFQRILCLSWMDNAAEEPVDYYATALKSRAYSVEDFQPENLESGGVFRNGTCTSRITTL
T3 sequence (P32745 whole entry): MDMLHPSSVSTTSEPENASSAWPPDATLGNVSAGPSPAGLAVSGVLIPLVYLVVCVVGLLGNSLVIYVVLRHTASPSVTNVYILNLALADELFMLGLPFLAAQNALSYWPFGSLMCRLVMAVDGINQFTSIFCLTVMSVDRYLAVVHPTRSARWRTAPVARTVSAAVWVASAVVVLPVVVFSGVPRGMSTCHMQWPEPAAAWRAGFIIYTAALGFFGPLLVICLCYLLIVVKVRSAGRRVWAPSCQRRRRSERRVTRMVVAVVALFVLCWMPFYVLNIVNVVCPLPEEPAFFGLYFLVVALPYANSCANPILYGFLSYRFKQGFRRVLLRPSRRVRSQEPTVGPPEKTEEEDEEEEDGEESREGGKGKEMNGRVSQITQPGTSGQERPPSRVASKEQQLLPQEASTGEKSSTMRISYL

| Compound | IC50 (human SSTR1; [1]) [nM] | IC50 (human SSTR2; [2]) [nM] | relative potency at SSTR3 by comparison to SRIF-28 (human SSTR3) | IC50 (human SSTR3; [3]) [nM] | binding strength and selectivity for SSTR3, in words (human SSTR3) | IC50 (human SSTR4; [5]) [nM] | IC50 (human SSTR5; [6]) [nM] | other results |
| --- | --- | --- | --- | --- | --- | --- | --- | --- |
| C[C@@H](O)[C@@H]1NC(=O)[C@H](CCCCN)NC(=O)[C@@H](N(C)C(=O)c2ccc3ccccc3c2)NC(=O)[C@H](Cc2ccc(O)cc2)NC(=O)[C@H](Cc2ccccc2)NC(=O)[C@@H](N)CSSC[C@@H](C(=O)O)NC(=O)[C@H](Cc2ccccc2)NC1=O [Peptide No. 2, (cyclo)H-Cys-Phe-Tyr-D-Agl(Me,2Np)-Lys-Thr-Phe-Cys-OH] | > 10000 | > 10000 | about 0.13 | 70 ± 18 | selectively bound to SSTR3 | > 1000 | > 10000 | effect on binding of the SRIF-28 radioligand to human SSTR1 (human SSTR1; peptide at 100 nM): minimal effects; effect on binding of the SRIF-28 radioligand to human SSTR2 (human SSTR2; peptide at 100 nM): minimal effects; IC50 (human SSTR3; [4]): ~70 nM; binding strength and selectivity for SSTR3, in words (human SSTR3; listed as Peptide 2): bind strongly and selectively to SSTR3; effect on binding of the SRIF-28 radioligand to human SSTR4 (human SSTR4; peptide at 100 nM): minimal effects; effect on binding of the SRIF-28 radioligand to human SSTR5 (human SSTR5; peptide at 100 nM): minimal effects |
| C[C@@H](O)[C@@H]1NC(=O)[C@H](CCCCN)NC(=O)[C@@H](N(C)C(=O)c2ccc3ccccc3c2)NC(=O)[C@H](Cc2ccc(O)cc2)NC(=O)[C@H](Cc2ccccc2)NC(=O)[C@H](N)CSSC[C@@H](C(=O)O)NC(=O)[C@H](Cc2ccccc2)NC1=O [Peptide No. 2A, (cyclo 3-14)H-D-Cys-Phe-Tyr-D-Agl(Me,2Np)-Lys-Thr-Phe-Cys-OH] | > 10000 | > 10000 | about 0.24 | 39 ± 11 | selectively binds to SSTR3 | > 10000 | > 10000 | IC50 (human SSTR3; [4]): ~39 nM; binding strength and selectivity for SSTR3, in words (human SSTR3; listed as Peptide 2A): bind strongly and selectively to SSTR3 |
| C[C@@H](O)[C@@H]1NC(=O)[C@H](CCCCN)NC(=O)[C@@H](N(C)C(=O)c2ccc3ccccc3c2)NC(=O)[C@H](Cc2ccccc2)NC(=O)[C@H](Cc2ccccc2)NC(=O)[C@@H](N)CSSC[C@@H](C(=O)O)NC(=O)[C@H](Cc2ccccc2)NC1=O [Peptide No. 2B, (cyclo 3-14)H-Cys-Phe-Phe-D-Agl(Me,2Np)-Lys-Thr-Phe-Cys-OH] | > 10000 | > 10000 | about 0.13 | 70 ± 17 | selectively binds to SSTR3 | > 10000 | > 10000 | IC50 (human SSTR1; iodinated SRIF-28 ligand, cloned human receptor, read-out: concentration below which no binding to human SSTR1): > 10000 nM; IC50 (human SSTR2; iodinated SRIF-28 ligand, cloned human receptor, read-out: concentration below which no binding to human SSTR2): > 10000 nM; IC50 at cloned human SSTR3 (human SSTR3; iodinated SRIF-28 ligand, cloned human receptor): about the same as No. 2; IC50 (human SSTR3; [4]): ~70 nM; binding strength and selectivity for SSTR3, in words (human SSTR3; listed as Peptide 2B): bind strongly and selectively to SSTR3; IC50 (human SSTR4; iodinated SRIF-28 ligand, cloned human receptor, read-out: concentration below which no binding to human SSTR4): > 1000 nM; IC50 (human SSTR5; iodinated SRIF-28 ligand, cloned human receptor, read-out: concentration below which no binding to human SSTR5): > 10000 nM |
| C[C@@H](O)[C@@H]1NC(=O)[C@H](CCCCN)NC(=O)[C@@H](N(C)C(=O)c2ccc3ccccc3c2)NC(=O)[C@H](Cc2ccc(Cl)cc2)NC(=O)[C@H](Cc2ccccc2)NC(=O)[C@@H](N)CSSC[C@@H](C(=O)O)NC(=O)[C@H](Cc2ccccc2)NC1=O [Peptide No. 2C, (cyclo 3-14)H-Cys-Phe-4ClPhe-D-Agl(Me,2Np)-Lys-Thr-Phe-Cys-OH] | > 1000 | > 1000 |  | 300 |  | > 10000 | > 10000 | binding strength and selectivity for SSTR3, in words (human SSTR3; listed as Peptide 2C): bind strongly and selectively to SSTR3; also recorded: slightly less selective |
| C[C@@H](O)[C@@H]1NC(=O)[C@H](CCCCN)NC(=O)[C@@H](N(C)C(=O)c2ccc3ccccc3c2)NC(=O)[C@H](Cc2ccccc2)NC(=O)[C@H](Cc2ccccc2)NC(=O)[C@H](N)CSSC[C@@H](C(=O)O)NC(=O)[C@H](Cc2ccccc2)NC1=O [Peptide No. 2D, (cyclo 3-14)H-D-Cys-Phe-Phe-D-Agl(Me,2Np)-Lys-Thr-Phe-Cys-OH] | > 10000 | > 10000 | about 0.08 | 115 ± 36 |  | > 10000 | > 1000 | binding strength and selectivity for SSTR3, in words (human SSTR3; listed as Peptide 2D): bind strongly and selectively to SSTR3; also recorded: slightly less selective |
| C[C@@H](O)[C@@H]1NC(=O)[C@H](CCCCN)NC(=O)[C@@H](N(C)C(=O)c2ccc3ccccc3c2)NC(=O)[C@H](Cc2ccc(Cl)cc2)NC(=O)[C@H](Cc2ccccc2)NC(=O)[C@H](N)CSSC[C@@H](C(=O)O)NC(=O)[C@H](Cc2ccccc2)NC1=O [Peptide No. 2E, (cyclo 3-14)H-D-Cys-Phe-4ClPhe-D-Agl(Me,2Np)-Lys-Thr-Phe-Cys-OH] | > 1000 | > 1000 |  | 180 |  | > 10000 | > 1000 | binding strength and selectivity for SSTR3, in words (human SSTR3; listed as Peptide 2E): bind strongly and selectively to SSTR3; also recorded: slightly less selective |
| (cyclo 3-14)Cbm-D-Cys-Phe-Agl(NMe,Bz)-D-2Nal-Lys-Thr-Phe-Cys-OH [Peptide No. 3C] |  |  |  |  | bind selectively to human SSTR3 |  |  |  |
| (cyclo 3-14)Cbm-D-Cys-Phe-Tyr-D-Agl(Me,2Np)-Lys-Thr-Aph(Ac)-Cys-OH [Peptide No. 2M] |  |  |  |  | bind strongly and selectively to SSTR3 |  |  |  |
| (cyclo 3-14)Cbm-D-Cys-Phe-Tyr-D-Agl(Me,2Np)-Lys-Thr-Aph(Cbm)-Cys-OH [Peptide No. 2N] |  |  |  |  | bind strongly and selectively to SSTR3 |  |  |  |
| (cyclo 3-14)Cbm-D-Cys-Phe-Tyr-D-Agl(Me,2Np)-Lys-Thr-Aph-Cys-OH [Peptide No. 2L] |  |  |  |  | bind strongly and selectively to SSTR3 |  |  |  |
| (cyclo 3-14)H-Cys-Lys-Asn-Phe-Tyr-D-Agl(Me,2Np)-Lys-Thr-Phe-Thr-Ser-Cys-OH [Peptide No. 2G] |  |  |  |  | binds selectively to SSTR3 but has fairly low affinity for all five SRIF receptors |  |  |  |
| (cyclo 3-14)H-Cys-Phe-Agl(Me,Bz)-D-1Nal-Lys-Thr-Phe-Cys-OH [Peptide No. 3B] |  |  |  |  | bind selectively to human SSTR3 |  |  |  |
| (cyclo 3-14)H-D-Cys-Phe-Agl(NMe,Bz)-D-2Nal-Lys-Thr-Phe-Cys-OH [Peptide No. 3A] |  |  |  |  | bind selectively to SSTR3 |  |  |  |
